Here are results for 12 compounds from patent US8592419B2, “Ceramides and apoptosis-signaling ligand” (MUSC Foundation for Research Development, priority 2004, dated 2013).

Where a SMILES comes first, the peptide text is derived from it. [ ]: non-standard residue; d: D form. The star is where a group is joined. Sta = CC(C)C[C@H](N)[C@@H](O)CC(=O)O; Isovaleryl = CC(C)CC(=O)*; Cbz = O=C(OCc1ccccc1)*; CH2F = FC*

One test has as its target T1, acid ceramidase (AC) (Homo sapiens, UniProt Q13510).
T1 construct: endogenous in cells
T1 sequence (Q13510 22-395): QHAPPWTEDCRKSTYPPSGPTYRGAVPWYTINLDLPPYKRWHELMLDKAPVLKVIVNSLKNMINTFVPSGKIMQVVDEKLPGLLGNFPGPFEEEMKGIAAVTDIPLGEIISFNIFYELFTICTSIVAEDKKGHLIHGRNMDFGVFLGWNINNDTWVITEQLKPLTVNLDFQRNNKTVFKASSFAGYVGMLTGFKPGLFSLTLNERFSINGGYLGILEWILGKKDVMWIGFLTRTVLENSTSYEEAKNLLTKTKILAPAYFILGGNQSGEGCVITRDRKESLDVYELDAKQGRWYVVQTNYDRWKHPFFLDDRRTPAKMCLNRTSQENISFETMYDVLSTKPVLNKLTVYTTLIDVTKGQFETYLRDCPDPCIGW
Kind of test: Immunoblot of acid ceramidase protein. It is filed as cell-based. Conditions: DU145 cells, one hour pretreatment, then LCL204 10 μM 6 hours. The procedure:
(§1) Immunoblot analysis. Cells were seeded in 60mm plates as described above and treated accordingly. Cells were lifted by gently scraping the plates, washed once with ice cold PBS and then lysed in lysis buffer (PBS, 1% Triton X-100, 10% glycerol) containing protease inhibitors pepstatin A (0.5 μg/ml), leupeptin (0.5 μg/ml), aprotinin (5 μg/ml), and PMSF (100 μg/ml) for 10 minutes on ice. Insoluble material was removed by centrifugation at 14,000 rpm for 15 minutes at 4° C. The supernatants were then supplemented with SDS at a final concentration of 2% and stored at −80° C. Protein concentrations were determined using the DC Protein Assay (BioRad Laboratories; Hercules, CA, USA) according to the manufacturer's instructions. 50 μg of protein per sample (unless otherwise indicated) were separated on NuPAGE 4-12% Bis-Tris gels (Invitrogen; Carlsbad, CA, USA) and transferred to nitrocellulose membranes (BioRad). Following transfer, membranes were blocked for 1 hour at room temperature in Tris-buffered saline (TBS) containing 0.1% Tween-20 and 5% nonfat dry milk and incubated overnight at 4° C. with primary antibody at a dilution of 1:2,000(actin), 1:1,000(cytochrome c, COX IV, Bax, Bak, p53, p38, P-p38), 1:500(P-JNK, JNK), 1:250 (AC, p73), or 1:400(LAMP-1, cathepsin B). Overnight incubations were performed in 5% milk in TBS-Tween. Following overnight incubation, membranes were washed three times for 10 minutes each in TBS-Tween and incubated for 1 hour at room temperature with secondary antibody in 5% milk TBS-Tween at a dilution 1:5,000 (goat anti-mouse IgG) or 1:50,000 (goat anti-rabbit). Membranes were then washed three times more and incubated for 5 minutes at room temperature with Super Signal HRP substrate (Pierce Biotechnology Inc.; Rockford, IL, USA).
(In general: In western blotting, separated proteins are transferred to a membrane and probed.)

A further test concerns the target T2, ASMase (Homo sapiens, UniProt P17405).
T2 construct: DU145 cells were lysed in 50 mM Tris (pH=7.4) using a probe sonicator; endogenous in cells; host or cells: DU145 (lysate of treated cells)
Kind of test: Acid sphingomyelinase activity assay. In kind it is cell-based. The settings on record: DU145 cells, 2-hour LCL204 treatment. The procedure: Acid Sphingomyelinase Activity Assay. DU145 cells were lysed in 50 mM Tris (pH=7.4) using a probe sonicator. Cellular debris was removed after centrifugation at 3000×g for 10 minutes. Proteins (50 μg) were adjusted to a total volume of 100 μl and the reaction was started by adding 100 μl of the reaction mixture containing 1 mM EDTA, 250 mM sodium acetate (pH 5.0), 100 μM [choline-methyl-^14C] sphingomyelin and 0.1% Triton X. After incubation at 37° C. for one hour, the reaction was stopped by adding 1.5 ml of chloroform/methanol (2:1) and then 200 μl of water. Phases were separated by centrifugation at 2000×g for 5 minutes. Quantitation of the amount of released radioactive phosphocholine was determined by subjecting 400 μl of the upper phase to scintillation counting.

The test system of the next test is L929 cells. Briefly: TNFα-induced PGE2 release. In kind it is cell-based. Conditions: TNFα-treated L929 mouse fibroblast cells, preliminary data. The text has this:
Interleukin-1 is a major inducer of inflammation and TNF is an important regulator of the reaction. Both cytokines can activate ceramidase, and thus inhibiting the activity of ceramidase can result in an anti-inflammatory effect. This may involve the prevention of the formation of sphingosine and sphingosine phosphate which have pro-inflammatory effects. Also, inhibition of ceramidase may prevent the hyperproliferation of immune cells that are important for inflammation. […] The release of PGE2 is also shown to be inhibited by D-(N-myristolyamino)-1-phenyl-1-propanol), D-MAPP, which is an inhibitor of one of the ceramidase. This observation may be important for inhibiting inflammatory reactions that occur in conditions, such as but not limited to rheumatoid arthritis. Thus, it is possible to treat or prevent inflammation by regulating the level of cellular ceramide using the method of the invention. As discussed above, ceramide level can be increased by administering compounds of the present invention that can inhibit mitochondrial ceramidase.

Test [1] relates to DU145 cells. Briefly: MTS cell viability assay in DU145 cells. It is filed as cell-based, human. The settings on record: for reproduction of the apoptotic consequences of LCL204-induced lysosomal rupture: agents that strictly alter lysosomal pH. The procedure: MTS cytotoxicity assays for LCL204 treatments. Cell viability was determined using the CellTiter 96 AQueous One Solution Cell Proliferation Assay (Promega; Madison, Wis., USA). 1×10^4 cells per well were seeded in 96-well plates overnight. The next day media was removed and replaced with either 100 μl media with vehicle control or media containing LCL204 at desired concentrations. Assays were carried out according to manufacturer's instruction as previously described (60). For experiments using enzyme inhibitors and LCL204, media was removed and replaced with 50 μl media containing vehicle only or indicated inhibitor. Cells were pretreated 1 hour at 37° C. before adding 50 μl media containing vehicle, inhibitor only, LCL204 only (2× concentration), or a combination. The remainder of the assay was carried out as described above.

The test system of test [2] is DU145 cells. Briefly: Cell death by MTS assay, ceramide analog combined with AdGFPFasL virus. It is filed as cell-based, human. The procedure: LCL102, a ceramidase inhibitor, which acts to increasing intracellular ceramide levels by […], were tested in this system. This molecule was highly efficient at activating cell death in DU145 cells at nontoxic doses if combined with AdGFPFasL virus at MOIs achievable in vivo. DU145 cells growing in 96 well plates at 1×10^4 cells/well are treated with either media alone or LCL102 at 2 uM for 48 hours followed by AdGFPFasL for 24 hours at the MOI (5-80). Cell death is assayed by the MTS assay. At 2 uM LCL102 and 5MOI of virus, cell death is amplified 4-fold compared to LCL102 alone (FIG. 14).
A general note: Tetrazolium dyes change colour on reduction, which living cells bring about.

The subject of a further test is PUMA. Briefly: Immunoblot of PUMA. In kind it is cell-based, human. Conditions: PPC-1/pcDNA3 cells, 40 μM SP600125 with LCL204. The procedure:
as §1

Another test concerns lysosomes of DU145 cells. Kind of test: Lysosomal stability assay (LysoTracker Red). In kind it is cell-based, human. Conditions: DU145 cells, 1 hour; LCL204 10 μM, C6-ceramide 30 μM, B13 20 μM. The procedure:
Lysosoinal stability assay. Lysosomal stability was measured using the fluorescent dye LysoTracker Red (LTR). Cells were seeded overnight in 60 mm plates. The next day, medium was removed and replaced with medium containing 200 nM LTR. Cells were loaded with LTR for 30 minutes at 37° C. LTR was removed and cells were washed once with PBS, then medium containing the treatment was added for the indicated time. After treatment, cells were lifted with trypsin, washed once in PBS, and resuspended in 0.5 mL growth medium. LTR fluorescence was measured using FACS analysis (564-606 nm) as above. A decrease in fluorescence intensity corresponded to an increase in lysosomal pH, and a minimum of 10,000 events were scored for each sample.

In test [3] the test system is DU145 cells. Kind of test: Effect of doxorubicin on apoptotic resistance of DU145 cells. The settings on record: 0.2 μg/ml. It is filed as cell-based, human. The text has this: The viruses described in Rubinchik et al. had been used under in vivo conditions to treat prostate cancer xenografts. […]. […] One of the limitations in PCa gene therapy is delivery of the therapeutic gene to every cell in the tumor. One way to overcome this is to amplify the response to the delivered gene by taking advantage of the bystander effect. For example, virally-expressed wild-type p53 is capable of inducing apoptosis in many types of cancer cells and is reported to have bystander activity by inducing localized FasL expression which recruits neutrophils infiltration that is believed to play a critical role in the bystander mechanism. In practice, the bystander effect, if activated , will result in regression of a solid tumor in spite of the physician's inability to deliver, by virus or liposome, a therapeutic gene to every cell. […] In the DU145 model of prostate cancer, the inventors determined that resistance to the induction of apoptosis through the Fas receptor signaling pathway is due to overexpression of apoptotic resistance genes including cFLIPs (Hyer et al., Cancer Biology and Therapy 1(4): 405-410, 2002). […] However, expression of apoptotic resistance genes in some cancers, including in the DU145 model, make the cells relatively insensitive to vesicle-mediated bystander activity. To overcome this, a number of different chemotherapeutic drugs and other small molecules were examined for their effect on apoptotic resistance mechanisms. […] This decrease in protein levels may be due to proteasomal degradation or a translational block. Under these conditions, a 20% increase in sensitivity of apoptotic vesicles is observed with 0.2 μg/ml doxorubicin. […]

T2 sequence (P17405 47-631): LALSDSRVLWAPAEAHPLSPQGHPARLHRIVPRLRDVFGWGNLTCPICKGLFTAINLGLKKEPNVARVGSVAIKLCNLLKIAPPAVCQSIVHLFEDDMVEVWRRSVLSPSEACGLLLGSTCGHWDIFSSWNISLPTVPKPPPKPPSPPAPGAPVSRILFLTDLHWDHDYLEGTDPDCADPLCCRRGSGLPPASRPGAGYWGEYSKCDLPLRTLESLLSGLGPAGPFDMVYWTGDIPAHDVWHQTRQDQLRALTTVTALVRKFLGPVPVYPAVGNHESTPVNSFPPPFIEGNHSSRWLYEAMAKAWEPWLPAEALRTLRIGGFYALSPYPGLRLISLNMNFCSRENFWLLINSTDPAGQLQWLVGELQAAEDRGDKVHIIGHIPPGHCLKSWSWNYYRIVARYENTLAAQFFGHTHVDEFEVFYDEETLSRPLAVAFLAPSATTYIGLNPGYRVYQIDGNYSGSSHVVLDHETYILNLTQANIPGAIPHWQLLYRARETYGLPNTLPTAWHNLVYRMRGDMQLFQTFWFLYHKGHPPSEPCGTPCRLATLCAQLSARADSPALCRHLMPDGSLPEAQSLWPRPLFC

As to `CC(C)C[C@@H](C=O)NC(=O)[C@H](CC(C)C)NC(=O)[C@H](CC(C)C)NC(=O)OCc1ccccc1` [MG132] (Cbz-Leu-Leu-Leu-aldehyde), the “effect of protease inhibitor pretreatment on LCL204-induced AC protein loss” value on acid ceramidase (AC) is on record as “blocked AC degradation”.

In the case of `CCCNC(=O)[C@H]1O[C@@H]1C(=O)N[C@H](C(=O)N1CCC[C@H]1C(=O)OC)[C@@H](C)CC` [CA074Me, reference compound], the “effect on LCL204-induced loss of ASMase activity” value at ASMase was “loss of activity was blocked”. For the same compound, at acid ceramidase (AC), the “effect of protease inhibitor pretreatment on LCL204-induced AC protein loss” value was “blocked AC degradation”.

Consider `CCCCCCCCCCCCCC(=O)NC(C)C(O)c1ccccc1` [D-MAPP], for which the “release of PGE2” value in the test with L929 cells is on record as “inhibited”.

`COC(=O)C[C@H](NC(=O)[C@H](C)NC(=O)[C@@H](NC(=O)OCc1ccccc1)C(C)C)C(=O)CF` [zVAD-fmk] (Cbz-Val-Ala-Asp(OMe)-CH2F): the “effect of protease inhibitor pretreatment on LCL204-induced AC protein loss” value at acid ceramidase (AC) is recorded as “blocked AC degradation”. Moreover, the “LCL204-mediated cell death after pre-treatment with caspase inhibitor” value in the test with DU145 cells [1] (pre-treated one hour, then LCL204 24 hours, especially below 15 μM LCL204) is given as “cell death was substantially reduced”.

On to `CO/C1=C\C(C)=C\[C@@H](C)[C@@H](O)[C@@H](C)C/C(C)=C/C=C/[C@H](OC)[C@@H]([C@@H](C)[C@@H](O)[C@H](C)[C@@]2(O)C[C@@H](O)[C@H](C)[C@@H](C(C)C)O2)OC1=O` [bafilomycin A1], for which, in the test on DU145 cells [1], the “reproduction of the apoptotic consequences of LCL204-induced lysosomal rupture” value is on record as “could not be reproduced”.

Turning to `CCCCCCCCCCCCCCN[C@H](CO)[C@H](O)c1ccc([N+](=O)[O-])cc1` [LCL102, (1R,2R)-2-N-Tetradecylamino-1-(4-nitro-phenyl)-1,3-propandiol], the “amplification of cell death compared to LCL102 alone” value in the test on DU145 cells [2] (2 uM for 48 hours, then AdGFPFasL 5MOI for 24 hours) amounted to 4 fold. Also, in the test on DU145 cells [2] (in vitro, subtoxic doses), the “increase of the ability of AdGFPFasL to kill tumor cells” value was “as much as ten-fold”.

`Oc1c2ccccc2c2c3c(cccc13)N=N2` [SP600125, reference compound]: the “time until which LCL204-induced PUMA induction was delayed” value with PUMA was “approximately 6 hours”.

For `CC(C)CC(=O)N[C@H](C(=O)N[C@H](C(=O)N[C@@H](CC(C)C)[C@@H](O)CC(=O)N[C@@H](C)C(=O)N[C@@H](CC(C)C)[C@@H](O)CC(=O)O)C(C)C)C(C)C` [pepstatin A] (Isovaleryl-VV[Sta]A[Sta]-OH), at acid ceramidase (AC), the “effect of protease inhibitor pretreatment on LCL204-induced AC protein loss” value is given as “no effect”.

In the case of `CCCCCCCCCCCCCC(=O)N[C@H](CO)[C@H](O)c1ccc([N+](=O)[O-])cc1` [B13, reference compound], the “shift in LTR fluorescence (rise in lysosomal pH)” value in the test on lysosomes of DU145 cells is recorded as “did not have this effect”.

`Cl.N` [NH4Cl]: the “reproduction of the apoptotic consequences of LCL204-induced lysosomal rupture” value in the test with DU145 cells [1] is on record as “could not be reproduced”.

Regarding `CCCCCCCCCCCCC/C=C/[C@@H](O)[C@H](CO)NC(=O)CCCCC` [C6-ceramide, reference compound], the “shift in LTR fluorescence (rise in lysosomal pH)” value with lysosomes of DU145 cells is listed as “did not have this effect”.

Turning to `COc1cccc2c1C(=O)c1c(O)c3c(c(O)c1C2=O)C[C@@](O)(C(=O)CO)C[C@@H]3O[C@H]1C[C@H](N)[C@H](O)[C@H](C)O1` [Doxorubicin], in the test with DU145 cells [3], the cFLIP protein expression entry was “decreases expression of cFLIP protein”, the “increase in sensitivity of apoptotic vesicles” value worked out at 20% and the “toxicity to DU145 cells” value is given as “toxic to DU145 cells at 48-72 hours”.
